Test results reported in patent publication US20250230193A1, “CYCLIC COMPOUND HAVING SELECTIVE KRAS INHIBITORY EFFECT ON HRAS AND NRAS” (CHUGAI SEIYAKU KABUSHIKI KAISHA, priority 2022, published 2025).

Assays:
[1] = target: GDP-bound NRAS wild-type protein (Homo sapiens, UniProt P01111); test: Binding to NRAS by surface plasmon resonance (SPR), Single Cycle Kinetics; details: SPR; for NRAS/KRAS (ratio of KD value for GDP-bound NRAS wild-type protein to KD value for KRAS): KD ratio class; for NRAS/KRAS (ratio of KD value for NRAS to KD value for KRAS): GDP-bound NRAS wild-type vs GDP-bound KRAS wild-type
Sequence of GDP-bound NRAS wild-type protein (P01111 whole entry): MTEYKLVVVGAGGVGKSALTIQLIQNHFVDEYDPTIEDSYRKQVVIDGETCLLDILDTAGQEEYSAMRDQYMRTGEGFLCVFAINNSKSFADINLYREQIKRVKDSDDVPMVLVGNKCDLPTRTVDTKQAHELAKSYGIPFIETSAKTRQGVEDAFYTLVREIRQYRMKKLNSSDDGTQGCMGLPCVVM

[2] = target: GDP-bound HRAS wild-type protein (Homo sapiens, UniProt P01112); test: Binding to HRAS by surface plasmon resonance (SPR), Single Cycle Kinetics; details: SPR; for HRAS/KRAS (ratio of KD value for GDP-bound HRAS wild-type protein to KD value for KRAS): KD ratio class; for HRAS/KRAS (ratio of KD value for HRAS to KD value for KRAS): GDP-bound HRAS wild-type vs GDP-bound KRAS wild-type
Sequence of GDP-bound HRAS wild-type protein (P01112 whole entry): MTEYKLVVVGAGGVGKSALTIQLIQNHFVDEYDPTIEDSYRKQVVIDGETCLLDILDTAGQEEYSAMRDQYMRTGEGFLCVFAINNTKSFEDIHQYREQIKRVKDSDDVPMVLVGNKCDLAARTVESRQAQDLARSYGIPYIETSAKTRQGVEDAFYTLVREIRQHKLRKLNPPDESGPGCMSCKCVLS

SMILES | NRAS/KRAS (ratio of KD value for GDP-bound NRAS wild-type protein to KD value for KRAS) [1] | HRAS/KRAS (ratio of KD value for GDP-bound HRAS wild-type protein to KD value for KRAS) [2] | NRAS/KRAS (ratio of KD value for NRAS to KD value for KRAS) [1] | HRAS/KRAS (ratio of KD value for HRAS to KD value for KRAS) [2]
CCO[C@@H]1C[C@H]2C(=O)NC3(CCC3)C(=O)N(C)[C@@H](C3CCCC3)C(=O)N(C)[C@H](C(=O)N3CCOCC3)CC(=O)N(C)[C@@H](CC)C(=O)N[C@@H]([C@@H](C)CC)C(=O)N(C)CC(=O)N(C)[C@H]3CC/C=C(/C)CN(C3=O)[C@@H](Cc3ccc(C(F)(F)F)cc3)C(=O)N(C)CC(=O)N[C@@H](CCc3cc(F)c(C(F)(F)F)c(F)c3)C(=O)N2C1 [PP1335] | B (a compound having 3 or more and less than 10 is denoted as B) | B (a compound having 3 or more and less than 10 is denoted as B) | – | –
CCCN(C)C(=O)[C@@H]1CC(=O)N(C)[C@@H](CC(C)C)C(=O)N[C@@H]([C@@H](C)CC)C(=O)N(C)CC(=O)N(C)[C@H]2C/C=C\CCN(C2=O)[C@@H](Cc2ccc(C(F)(F)F)cc2)C(=O)N(C)CC(=O)N[C@@H](CCc2cc(F)c(C(F)(F)F)c(F)c2)C(=O)N2C[C@H](OCC)C[C@H]2C(=O)NC2(CCC2)C(=O)N(C)[C@@H](C2CCCC2)C(=O)N1C [PP1387] | A (a compound having 10 or more and less than 20 is denoted as A) | B (a compound having 3 or more and less than 10 is denoted as B) | – | –
CCCN(C)C(=O)[C@@H]1CC(=O)N(C)[C@@H](CC2CC2)C(=O)N[C@@H]([C@@H](C)CC)C(=O)N(C)CC(=O)N(C)[C@H]2C/C=C\CCN(C2=O)[C@@H](Cc2ccc(C(F)(F)F)cc2)C(=O)N(C)CC(=O)N[C@@H](CCc2cc(F)c(C(F)(F)F)c(F)c2)C(=O)N2C[C@H](OCC)C[C@H]2C(=O)NC2(CCC2)C(=O)N(C)[C@@H](C2CCCC2)C(=O)N1C [PP1388] | A (a compound having 10 or more and less than 20 is denoted as A) | B (a compound having 3 or more and less than 10 is denoted as B) | – | –
CCC[C@H]1C(=O)N[C@@H]([C@@H](C)CC)C(=O)N(C)CC(=O)N(C)[C@H]2C/C=C\CCN(C2=O)[C@@H](Cc2ccc(C(F)(F)F)cc2)C(=O)N(C)CC(=O)N[C@@H](CCc2cc(F)c(C(F)(F)F)c(F)c2)C(=O)N2C[C@H](OCC)C[C@H]2C(=O)NC2(CCC2)C(=O)N(C)[C@@H](C2CCCC2)C(=O)N(C)[C@H](C(=O)N(C)CCC)CC(=O)N1C [PP1389] | AA (a compound having 20 or more is denoted as AA) | A (a compound having 10 or more and less than 20 is denoted as A) | – | –
CC[C@H](C)[C@@H]1NC(=O)[C@H](CC2CC2)N(C)C(=O)C[C@@H](C(=O)N(C)C)N(C)C(=O)[C@H](C2CCCC2)N(C)C(=O)C2(CCC2)NC(=O)[C@@H]2[C@@H](OCC(F)F)CCN2C(=O)[C@H](CCc2cc(F)c(C(F)(F)F)c(F)c2)NC(=O)CN(C)C(=O)[C@H](Cc2ccc(C(F)(F)F)cc2)N2CC/C=C\C[C@@H](C2=O)N(C)C(=O)CN(C)C1=O [PP1533] | AA (a compound having 20 or more is denoted as AA) | A (a compound having 10 or more and less than 20 is denoted as A) | – | –
CC[C@H](C)[C@@H]1NC(=O)[C@H](CC(C)C)N(C)C(=O)C[C@@H](C(=O)N(C)C)N(C)C(=O)[C@H](C2CCCC2)N(C)C(=O)C2(CCC2)NC(=O)[C@@H]2[C@@H](OCC(F)F)CCN2C(=O)[C@H](CCc2cc(F)c(C(F)(F)F)c(F)c2)NC(=O)CN(C)C(=O)[C@H](Cc2ccc(C(F)(F)F)cc2)N2CC/C=C\C[C@@H](C2=O)N(C)C(=O)CN(C)C1=O [PP1534] | AA (a compound having 20 or more is denoted as AA) | A (a compound having 10 or more and less than 20 is denoted as A) | – | –
CC[C@H](C)[C@@H]1NC(=O)[C@H](CC2CC2)N(C)C(=O)C[C@@H](C(=O)N(C)CC)N(C)C(=O)[C@H](C2CCCC2)N(C)C(=O)C2(CCC2)NC(=O)[C@@H]2C[C@H](C)CN2C(=O)[C@H](CCc2cc(F)c(C(F)(F)F)c(F)c2)NC(=O)CN(C)C(=O)[C@H](Cc2ccc(C(F)(F)F)cc2)N2CC/C=C\C[C@@H](C2=O)N(C)C(=O)CN(C)C1=O [PP1537] | AA (a compound having 20 or more is denoted as AA) | A (a compound having 10 or more and less than 20 is denoted as A) | – | –
CC[C@H](C)[C@@H]1NC(=O)[C@H](CC2CC2)N(C)C(=O)C[C@@H](C(=O)N(C)CC)N(C)C(=O)[C@H](C2CCCC2)N(C)C(=O)C2(CCC2)NC(=O)[C@@H]2CC(F)(F)CN2C(=O)[C@H](CCc2cc(F)c(C(F)(F)F)c(F)c2)NC(=O)CN(C)C(=O)[C@H](Cc2ccc(C(F)(F)F)cc2)N2CC/C=C\C[C@@H](C2=O)N(C)C(=O)CN(C)C1=O [PP1538] | A (a compound having 10 or more and less than 20 is denoted as A) | B (a compound having 3 or more and less than 10 is denoted as B) | – | –
CCO[C@@H]1C[C@H]2C(=O)NC3(CCC3)C(=O)N(C)[C@@H](C3CCCC3)C(=O)N(C)[C@H](C(=O)N(C)CC)CC(=O)N(C)[C@@H](CC)C(=O)N[C@@H]([C@@H](C)CC)C(=O)N(C)CC(=O)N(C)[C@H]3C/C=C\CCN(C3=O)[C@@H](CC3CCCCC3)C(=O)N(C)CC(=O)N[C@@H](CCc3cc(F)c(C(F)(F)F)c(F)c3)C(=O)N2C1 [PP1552] | A (a compound having 10 or more and less than 20 is denoted as A) | A (a compound having 10 or more and less than 20 is denoted as A) | – | –
CCO[C@@H]1C[C@H]2C(=O)NC3(CCC3)C(=O)N(C)[C@@H](C3CCCC3)C(=O)N(C)[C@H](C(=O)N(C)CC)CC(=O)N(C)[C@@H](CC)C(=O)N[C@@H]([C@@H](C)CC)C(=O)N(C)CC(=O)N(C)[C@H]3C/C=C\CCN(C3=O)[C@@H](CC3CCC(F)(F)CC3)C(=O)N(C)CC(=O)N[C@@H](CCc3cc(F)c(C(F)(F)F)c(F)c3)C(=O)N2C1 [PP1553] | A (a compound having 10 or more and less than 20 is denoted as A) | A (a compound having 10 or more and less than 20 is denoted as A) | – | –
C=CCCCCN(C)C(=O)[C@@H]1CC(=O)N(C)[C@@H](CC2CC2)C(=O)N[C@@H](CC=C)C(=O)N(C)CC(=O)N(C)[C@H]2C/C=C\CCN(C2=O)[C@@H](Cc2ccc(C(F)(F)F)cc2)C(=O)N(C)CC(=O)N[C@@H](CCc2cc(F)c(C(F)(F)F)c(F)c2)C(=O)N2C[C@H](OCC)C[C@H]2C(=O)NC2(CCC2)C(=O)N(C)[C@@H](C2CCCC2)C(=O)N1C [PP1554] | A (a compound having 10 or more and less than 20 is denoted as A) | A (a compound having 10 or more and less than 20 is denoted as A) | – | –
C=CC[C@@H]1NC(=O)[C@H](CC2CC2)N(C)C(=O)C[C@@H](C(=O)N(C)CC=C)N(C)C(=O)[C@H](C2CCCC2)N(C)C(=O)C2(CCC2)NC(=O)[C@@H]2C[C@@H](OCC)CN2C(=O)[C@H](CCc2cc(F)c(C(F)(F)F)c(F)c2)NC(=O)CN(C)C(=O)[C@H](Cc2ccc(C(F)(F)F)cc2)N2CC/C=C\C[C@@H](C2=O)N(C)C(=O)CN(C)C1=O [PP1557] | A (a compound having 10 or more and less than 20 is denoted as A) | A (a compound having 10 or more and less than 20 is denoted as A) | – | –
CCO[C@@H]1C[C@H]2C(=O)NC3(CCCC3)C(=O)N(C)[C@@H](C3CCCC3)C(=O)N(C)[C@H](C(=O)N(C)CC)CC(=O)N(C)[C@@H](CC(C)C)C(=O)N[C@@H]([C@@H](C)CC)C(=O)N(C)CC(=O)N(C)[C@H]3C/C=C\CCN(C3=O)[C@@H](Cc3ccc(C(F)(F)F)cc3)C(=O)N(C)CC(=O)N[C@@H](CCc3cc(F)c(C(F)(F)F)c(F)c3)C(=O)N2C1 [PP1574, (2S,8S,12R,14S,20S,23S,27S,30S,36S,38Z)-20-cyclopentyl-8-[2-[3,5-difluoro-4-(trifluoromethyl)phenyl]ethyl]-12-ethoxy-N-ethyl-27-isobutyl-N,4,19,22,26,32,35-heptamethyl-30-[(1S)-1-methylpropyl]-3,6,9,15,18,21,25,28,31,34,42-undecaoxo-2-[[4-(trifluoromethyl)phenyl]methyl]spiro[1,4,7,10,16,19,22,26,29,32,35-undecazatricyclo[34.5.1.0^10,14]dotetracont-38-ene-17,1′-cyclopentane]-23-carboxamide] | A (a compound having 10 or more and less than 20 is denoted as A) | A (a compound having 10 or more and less than 20 is denoted as A) | – | –
CCO[C@@H]1C[C@H]2C(=O)NC3(CC(F)(F)C3)C(=O)N(C)[C@@H](C(CC)CC)C(=O)N3CCC[C@@H]3CC(=O)N(C)[C@@H](CC)C(=O)N[C@@H]([C@@H](C)CC)C(=O)N(C)CC(=O)N(C)[C@H]3C/C=C\CCN(C3=O)[C@@H](Cc3ccc(C(F)(F)F)cc3)C(=O)N(C)CC(=O)N[C@@H](CCc3cc(F)c(C(F)(F)F)c(F)c3)C(=O)N2C1 [PP1608] | – | – | A (a compound having 10 or more and less than 20 is denoted as A) | A (a compound having 10 or more and less than 20 is denoted as A)
CCO[C@@H]1C[C@H]2C(=O)NC3(CC(F)(F)C3)C(=O)N(C)[C@@H](C3CCCC3)C(=O)N3CCC[C@@H]3CC(=O)N(C)[C@@H](CC)C(=O)N[C@@H]([C@@H](C)CC)C(=O)N(C)CC(=O)N(C)[C@H]3C/C=C\CCN(C3=O)[C@@H](Cc3ccc(C(F)(F)F)cc3)C(=O)N(C)CC(=O)N[C@@H](CCc3cc(F)c(C(F)(F)F)c(F)c3)C(=O)N2C1 [PP1609] | – | – | A (a compound having 10 or more and less than 20 is denoted as A) | A (a compound having 10 or more and less than 20 is denoted as A)
